Laboratory results reported in patent US20240424112A1, “TETRAHYDROISOQUINOLINE COMPOUNDS THAT ARE KEAP1 BINDERS” (C4X Discovery Limited, priority 2021, published 2024).

Assays:
[1] = tested on: NRF2 mediated gene NAD(P)H:quinone acceptor oxidoreductase 1 (NQO1) mRNA in BEAS-2B cells; assay: Beas2B NQO1 mRNA cell based assay; details: Homo sapiens, 24 h, vs vehicle (0.1% DMSO), read-out: EC50 (increase in NQO1 mRNA)
Description: Beas2B NQO1 mRNA Cell Based Assay
The up-regulation of the NRF2 mediated gene NAD(P)H:quinone acceptor oxidoreductase 1 (NQO1) was measured using the following assay method: BEAS-2B cells (ATCC CRL-9609) were plated in 96-well clear plates at 20,000 cells/well in 75 μL of cell culture media and incubated overnight (37° C., 5% CO2). On day 2, 25 μL of compound or controls were added to the cells for 24 h. On day 3, the medium was aspirated from the plate and the Cells-to-CT™ 1-Step TaqMan® Kit (Ambion A25603) was used to perform expression analysis directly from cultured cells without RNA purification according to the manufacturer's instructions.
Briefly, cells were washed with ice cold PBS and 22.5 μL of room-temperature DNase/Lysis solution was added to the cells and incubated at room temperature for 5 minutes. To stop the reaction, 2.25 μL of stop solution was added to the cell lysate. The samples were diluted 1:5 using nuclease free water and 2.5 μL transferred into the PCR plate. Real-time PCR was performed using the C-1000 Thermal Cycler (Bio-Rad) using human beta actin as the internal control. The cDNA was amplified with a specific primer for NQO1 using the 1-step RT-PCR master mix (Ambion Cells-to-CT™ 1-Step TaqMan® Kit A25603). The primers/probes sets that were used for amplification of cDNA were obtained from TaqMan Gene Expression Assays (Applied Biosystems). The comparative CT (ΔΔCT) relative quantification method was used to calculate the relative mRNA level of the target gene NQO1 as described in the Applied Biosystems Chemistry Guide. The data are expressed as an increase in target gene mRNA compared to vehicle (0.1% DMSO) control and the EC50 values were determined by fitting the data to a four parameter logistic fit using XLfit or XE Runner within ActivityBase.

[2] = target: T1, BRD4 long isoform (Homo sapiens, UniProt O60885); assay: BRD4 degradation assay (Western blot, MDA-MB-468 cells), long isoform; assay type: cell-based; details: MDA-MB-468, n = 2
T1 construct: endogenous in cells; host or cells: MDA-MB-468
Description: (§1) BRD4 Degradation Assay Protocol Summary
(§2) MDA-MB-468 cells were cultured routinely in DMEM supplemented with 10% heat inactivated FBS and 1% Penicillin-Streptomycin (Thermofisher Scientific) at 37° C. 5% CO2. Cells were seeded in 6-well plates at 4*10^5 cells per well and left to adhere overnight. Example compounds were solubilised in DMSO to make 10 mM stocks followed by serial dilutions in DMSO to 200× final concentration. These were further diluted in culture media to give 20× treatment stocks before addition to cells to a 1× final concentration. Cells were then incubated at 37° C. 5% CO2 for 24 or 48 hours after which cells were lysed in RIPA buffer supplemented with cOmplete Mini Protease Inhibitor Cocktail and PhosSTOP™ (Roche). Lysates were clarified by centrifugation at 13,000 RPM for 10 minutes and the protein concentration of the resulting supernatants determined by BCA assay (ThermoFisher Scientific) as per manufacturer's instructions. Lysates were denatured and reduced in NuPAGE LDS sample buffer and sample reducing agent before 10 μg was loaded onto NuPAGE […] Tris-Acetate Mini Protein Gels (ThermoFisher Scientific). Protein was transferred to nitrocellulose membranes using a Trans-Blot Turbo Transfer System (Bio-Rad) before blocking for 1 hour in Intercept (TBS) Blocking Buffer (Li-Cor). Membranes were then incubated overnight with BRD4 (ab128874; Abcam) and α-tubulin (T6074; Sigma-Aldrich) antibodies diluted 1:2000 and 1:16,000 respectively in Tris-buffered saline 0.05% Tween 20 (TBS-T). The following day, membranes were washed with TBS-T before addition of anti-rabbit IRDye 800 CW and anti-mouse IRDye 680LT secondary antibodies (LiCor) (diluted 1:10,000 in TBS-T) for one hour. Membranes were then washed with TBS-T before imaging using a LICOR Odyssey Infrared Imaging System with Image Studio Ver 5.2 software (LiCor). Densitometry analysis was carried out in the LiCor image studio software where BRD4 signal was normalised to α-tubulin signal. Percentage degradation of BRD4 relative to the DMSO treated negative control was calculated as: =100−(signal of interest/signal of control sample*100). BRD4 degradation by dBET1 was used as positive control for each plate. Data obtained for the percentage degradation of BRD4 upon treatment with the Example compounds 1-6 and Comparative Example compounds 1-3 at 24 hour incubation are shown in Table 2 and with 48 hour incubation are shown in Table 3.

[3] = target: T2, BRD4 short isoform (Homo sapiens, UniProt O60885); assay: BRD4 degradation assay (Western blot, MDA-MB-468 cells), short isoform; assay type: cell-based; details: MDA-MB-468, n = 2
T2 construct: endogenous in cells; host or cells: MDA-MB-468
Description: as §1, §2

Row | % Mean Degradation of BRD4 ([2]; 24 h, 0.1 μM) [%] | % Mean Degradation of BRD4 ([2]; 24 h, 1 μM) [%] | % Mean Degradation of BRD4 ([2]; 24 h, 5 μM) [%] | % Mean Degradation of BRD4 ([2]; 48 h, 0.1 μM) [%] | % Mean Degradation of BRD4 ([2]; 48 h, 1 μM) [%] | % Mean Degradation of BRD4 ([2]; 48 h, 5 μM) [%] | % Mean Degradation of BRD4 ([3]; 24 h, 0.1 μM) [%] | % Mean Degradation of BRD4 ([3]; 24 h, 1 μM) [%] | % Mean Degradation of BRD4 ([3]; 24 h, 5 μM) [%] | % Mean Degradation of BRD4 ([3]; 48 h, 0.1 μM) [%] | % Mean Degradation of BRD4 ([3]; 48 h, 1 μM) [%] | % Mean Degradation of BRD4 ([3]; 48 h, 5 μM) [%] | SMILES | EC50 [1] [nM]
1 | 1 | 65 | 69 | 34 | 78 | 82 | −5 | 76 | 78 | 40 | 78 | 80 | Cc1sc2c(c1C)C(c1ccc(Cl)cc1)=N[C@@H](CC(=O)NCCOCCC(=O)NCCOCc1c(COc3ccc(Cl)c4c3[C@@H](CN3CC5(CC5)CC3=O)N(C(=O)[C@@H]3CCCC[C@]3(C)C(=O)O)CC4)nnn1C)c1nnc(C)n1-2 [Example 5, (1S,2R)-2-((S)-5-Chloro-8-((5-(14-((S)-4-(4-chlorophenyl)-2,3,9-trimethyl-6H-thieno[3,2-f][1,2,4]triazolo[4,3-a][1,4]diazepin-6-yl)-6,13-dioxo-2,9-dioxa-5,12-diazatetradecyl)-1-methyl-1H-1,2,3-triazol-4-yl)methoxy)-1-((6-oxo-5-azaspiro[2.4]heptan-5-yl)methyl)-1,2,3,4-tetrahydroisoquinoline-2-carbonyl)-1-methylcyclohexane-1-carboxylic acid] | 337
2 | 23 | 80 | 75 | 14 | 67 | 60 | 31 | 87 | 87 | 25 | 77 | 79 | Cc1sc2c(c1C)C(c1ccc(Cl)cc1)=N[C@@H](CC(=O)NCC(=O)NCCOCc1c(COc3ccc(Cl)c4c3[C@@H](CN3CC5(CC5)CC3=O)N(C(=O)[C@@H]3CCCC[C@]3(C)C(=O)O)CC4)nnn1C)c1nnc(C)n1-2 [Example 3, (1S,2R)-2-((S)-5-Chloro-8-((5-((2-(2-(2-((S)-4-(4-chlorophenyl)-2,3,9-trimethyl-6H-thieno[3,2-f][1,2,4]triazolo[4,3-a][1,4]diazepin-6-yl)acetamido)acetamido)ethoxy)methyl)-1-methyl-1H-1,2,3-triazol-4-yl)methoxy)-1-((6-oxo-5-azaspiro[2.4]heptan-5-yl)methyl)-1,2,3,4-tetrahydroisoquinoline-2-carbonyl)-1-methylcyclohexane-1-carboxylic acid] | 280
3 | −37 | 26 | 43 | −19 | 56 | 71 | 18 | 65 | 75 | −2 | 65 | 77 | Cc1sc2c(c1C)C(c1ccc(Cl)cc1)=N[C@@H](CC(=O)NCCC(=O)NCCOCc1c(COc3ccc(Cl)c4c3[C@@H](CN3CC5(CC5)CC3=O)N(C(=O)[C@@H]3CCCC[C@]3(C)C(=O)O)CC4)nnn1C)c1nnc(C)n1-2 [Example 4, (1S,2R)-2-((S)-5-Chloro-8-((5-((2-(3-(2-((S)-4-(4-chlorophenyl)-2,3,9-trimethyl-6H-thieno[3,2-f][1,2,4]triazolo[4,3-a][1,4]diazepin-6-yl)acetamido)propanamido)ethoxy)methyl)-1-methyl-1H-1,2,3-triazol-4-yl)methoxy)-1-((6-oxo-5-azaspiro[2.4]heptan-5-yl)methyl)-1,2,3,4-tetrahydroisoguinoline-2-carbonyl)-1-methylcyclohexane-1-carboxylic acid] | 660
